Source: patent US11427544B2, “Histone deacetylase 6 inhibitors and use thereof” (TAIPEI MEDICAL UNIVERSITY, priority 2016, dated 2022)
Like-named read-outs stand apart in the source and are kept apart here.

What was measured:
HDAC1 = biological target: T1, HDAC1 (Homo sapiens, UniProt Q13547); assay: Fluorogenic HDAC assay, HDAC1; format: biochemical; details: recombinant HDAC1; read-out: Enzyme IC50 HDAC1
T1 construct: purchased BPS Bioscience Corp
Description: (§1) Of note, there are eighteen human HDACs. Eleven of them, designated as HDAC1-11, are zinc-dependent. Seven of them, designated as Sirt1-7, are NAD+-dependent.
(§2) Fluorogenic HDAC assay kits were used to assess the ability of HDAC inhibitors to inhibit deacetylation of lysine residues on a substrate by recombinant proteins HDAC1, 3, 4, 5, 6, 7, 8, 9 and Sirt1 according to the manufacturer's instructions (BPS Bioscience Corp., San Diego, Calif., USA).

HDAC6 = biological target: T2, HDAC6 (Homo sapiens, UniProt Q9UBN7); assay: Fluorogenic HDAC assay, HDAC6; format: biochemical; details: recombinant HDAC6; read-out: Enzyme IC50 HDAC6
T2 construct: purchased BPS Bioscience Corp
T2 sequence (Q9UBN7 1-1215): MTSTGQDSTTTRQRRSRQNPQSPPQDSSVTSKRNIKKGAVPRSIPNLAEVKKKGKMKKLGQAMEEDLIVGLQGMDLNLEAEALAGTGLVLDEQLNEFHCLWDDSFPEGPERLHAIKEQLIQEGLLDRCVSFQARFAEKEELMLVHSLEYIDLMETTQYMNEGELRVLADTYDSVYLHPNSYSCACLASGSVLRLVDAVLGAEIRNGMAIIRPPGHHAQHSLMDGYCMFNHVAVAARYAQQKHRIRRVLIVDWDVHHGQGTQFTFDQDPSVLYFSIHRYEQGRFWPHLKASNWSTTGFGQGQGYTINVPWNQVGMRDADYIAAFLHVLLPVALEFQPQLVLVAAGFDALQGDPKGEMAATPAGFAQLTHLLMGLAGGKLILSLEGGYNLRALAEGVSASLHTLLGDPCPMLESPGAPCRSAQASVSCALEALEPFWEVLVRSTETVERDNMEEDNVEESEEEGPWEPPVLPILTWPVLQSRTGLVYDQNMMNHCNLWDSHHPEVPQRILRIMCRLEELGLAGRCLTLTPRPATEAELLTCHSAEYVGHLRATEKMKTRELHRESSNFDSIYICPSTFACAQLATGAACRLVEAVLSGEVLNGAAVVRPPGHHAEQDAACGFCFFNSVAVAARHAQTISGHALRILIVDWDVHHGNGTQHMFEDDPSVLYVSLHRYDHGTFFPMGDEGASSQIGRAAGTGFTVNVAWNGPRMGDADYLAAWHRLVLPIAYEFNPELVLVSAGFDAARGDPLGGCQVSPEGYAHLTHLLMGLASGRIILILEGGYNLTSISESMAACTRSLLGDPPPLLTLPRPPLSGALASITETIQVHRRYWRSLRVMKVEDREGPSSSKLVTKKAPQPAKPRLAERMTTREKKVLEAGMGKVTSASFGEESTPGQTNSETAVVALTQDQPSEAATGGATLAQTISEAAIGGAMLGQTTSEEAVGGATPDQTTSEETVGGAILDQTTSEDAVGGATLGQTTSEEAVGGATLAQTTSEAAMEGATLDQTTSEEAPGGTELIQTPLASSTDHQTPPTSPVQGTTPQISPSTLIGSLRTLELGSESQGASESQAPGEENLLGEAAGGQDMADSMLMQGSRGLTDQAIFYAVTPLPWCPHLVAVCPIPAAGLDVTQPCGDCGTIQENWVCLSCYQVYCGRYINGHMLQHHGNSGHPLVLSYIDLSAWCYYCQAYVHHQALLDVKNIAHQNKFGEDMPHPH
Description: as §1, §2

[1] = system: PC-3 prostate cancer cell line; assay: Antiproliferative activity, PC-3; format: cell-based, human
Experimental: (§3) A study was conducted to evaluate the inhibitory activity of compounds of Formula (I) in inhibiting HDAC6, antiproliferative activity of test compounds in suppressing cancer cell growth, and selectivity of inhibiting HDAC6 over other HDAC isoforms.
(§4) The study was performed according to the protocol reported in Hsieh et al., Cell Death and Disease, 2014, April; 5:e1166.
(§5) Shown in Table 2 below are antiproliferative activities (measured by their half maximal concentration for inhibiting cell growth, i.e., GI50) of the test compounds against various cancer cell lines.

[2] = system: A549 lung cancer cell line; assay: Antiproliferative activity, A549; format: cell-based, human
Experimental: as §3, §4, §5

[3] = system: HCT116 colorectal cancer cell line; assay: Antiproliferative activity, HCT116; format: cell-based; details: Homo sapiens, HCT-116
Experimental: as §3, §4, §5

HL60 leukemia cell line = assay: Antiproliferative activity, HL60; format: cell-based; details: Homo sapiens, HL-60
Experimental: as §3, §4, §5

T1 sequence (Q13547 whole entry): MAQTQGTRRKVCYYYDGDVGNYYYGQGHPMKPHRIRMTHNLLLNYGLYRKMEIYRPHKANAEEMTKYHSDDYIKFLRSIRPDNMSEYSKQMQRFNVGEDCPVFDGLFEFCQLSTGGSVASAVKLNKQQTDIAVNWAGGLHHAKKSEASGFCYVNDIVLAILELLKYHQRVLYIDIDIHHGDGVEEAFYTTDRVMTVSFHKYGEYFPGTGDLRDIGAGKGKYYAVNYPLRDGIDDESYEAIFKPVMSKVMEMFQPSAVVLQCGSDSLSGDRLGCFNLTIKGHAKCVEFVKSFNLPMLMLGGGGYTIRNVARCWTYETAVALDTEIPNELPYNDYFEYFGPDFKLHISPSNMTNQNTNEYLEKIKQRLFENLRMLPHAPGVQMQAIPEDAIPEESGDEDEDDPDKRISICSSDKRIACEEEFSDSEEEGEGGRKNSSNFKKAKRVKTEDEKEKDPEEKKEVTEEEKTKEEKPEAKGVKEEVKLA

SMILES	GI50 ([1]; Homo sapiens)	GI50 ([2]; Homo sapiens)	GI50 [3]	further results
O=C(NO)c1ccc(CNc2cnc3ccccc3c2)cc1 [Compound 4, N-hydroxy-4-((quinolin-3-ylamino)methyl)benzamide]	1.62 ± 0.2 µM	2.73 ± 0.24 µM	–	IC50 (HDAC1): 0.78 µM; IC50 (HDAC6): 0.0191 µM
O=C(/C=C/c1ccc(CNc2cnc3ccccc3c2)cc1)NO [Compound 6, (E)-N-hydroxy-3-(4-((quinolin-3-ylamino)methyl)phenyl)acrylamide]	0.38 ± 0.03 µM	0.71 ± 0.01 µM	–	–
O=C(NO)c1ccc(C(=O)Nc2cnc3ccccc3c2)cc1 [Compound 8, N^1-hydroxy-N^4-(quinolin-3-yl)terephthalamide]	> 10 µM	> 10 µM	–	–
O=C(/C=C/c1ccc(C(=O)Nc2cnc3ccccc3c2)cc1)NO [Compound 10, (E)-4-(3-(hydroxyamino)-3-oxoprop-1-enyl)-N-(quinolin-3-yl)benzamide]	> 10 µM	> 10 µM	–	–
O=C(/C=C/c1ccc(CNc2cccc3ncccc23)cc1)NO [Compound 14, (E)-N-hydroxy-3-(4-((quinolin-5-ylamino)methyl)phenyl)acrylamide]	0.62 ± 0.05 µM	1.25 ± 0.08 µM	–	–
O=C(NO)c1ccc(C(=O)Nc2cccc3ncccc23)cc1 [Compound 16, N1-hydroxy-N4-(quinolin-5-yl)terephthalamide]	> 10 µM	> 10 µM	–	–
O=C(/C=C/c1ccc(C(=O)Nc2cccc3ncccc23)cc1)NO [Compound 18, (E)-4-(3-(hydroxyamino)-3-oxoprop-1-enyl)-N-(quinolin-5-yl)benzamide]	> 10 µM	> 10 µM	–	–
O=C(NO)c1ccc(CNc2ccc3ncccc3c2)cc1 [Compound 20, N-hydroxy-4-((quinolin-6-ylamino)methyl)benzamide]	> 10 µM	> 10 µM	–	IC50 (HDAC1): > 100 µM; IC50 (HDAC6): 0.019 µM
O=C(/C=C/c1ccc(CNc2ccc3ncccc3c2)cc1)NO [Compound 22, (E)-N-hydroxy-3-(4-((quinolin-6-ylamino)methyl)phenyl)acrylamide]	> 10 µM	> 10 µM	–	–
O=C(NO)c1ccc(C(=O)Nc2ccc3ncccc3c2)cc1 [Compound 24, N^1-hydroxy-N^4-(quinolin-6-yl)terephthalamide]	> 10 µM	> 10 µM	–	–
O=C(/C=C/c1ccc(C(=O)Nc2ccc3ncccc3c2)cc1)NO [Compound 26, (E)-4-(3-(hydroxyamino)-3-oxoprop-1-enyl)-N-(quinolin-6-yl)benzamide]	> 10 µM	> 10 µM	–	–
O=C(/C=C/c1ccc(CNc2cccc3cccnc23)cc1)NO [Compound 30, (E)-N-hydroxy-3-(4-((quinolin-8-ylamino)methyl)phenyl)acrylamide]	1.25 ± 0.02 µM	1.11 ± 0.05 µM	–	–
O=C(NO)c1ccc(C(=O)Nc2cccc3cccnc23)cc1 [Compound 32, N^1-hydroxy-N^4-(quinolin-8-yl)terephthalamide]	> 10 µM	> 10 µM	–	–
O=C(/C=C/c1ccc(C(=O)Nc2cccc3cccnc23)cc1)NO [Compound 34, (E)-4-(3-(hydroxyamino)-3-oxoprop-1-enyl)-N-(quinolin-8-yl)benzamide]	3.51 ± 0.18 µM	4.26 ± 0.07 µM	–	–
O=C(NO)c1cccc(CNc2cccc3cccnc23)c1 [Compound 36, N-hydroxy-3-((quinolin-8-ylamino)methyl)benzamide]	> 10 µM	–	> 10 µM	–
O=C(NO)c1cccc(C(=O)Nc2cccc3cccnc23)c1 [Compound 38, M-hydroxy-N^3-(quinolin-8-yl)isophthalamide]	> 10 µM	–	> 10 µM	–
O=C(NO)c1ccc(CNc2ccc3ccccc3n2)cc1 [Compound 40, N-hydroxy-4-((quinolin-2-ylamino)methyl)benzamide]	0.85 ± 0.09 µM	–	0.29 ± 0.02 µM	–

SMILES	GI50 ([1]; Homo sapiens)	GI50 ([2]; Homo sapiens)	GI50 [3]	further results
O=C(NO)c1ccc(CNc2ccc3cccnc3c2)cc1 [Compound 42, N-hydroxy-4-((quinolin-7-ylamino)methyl)benzamide]	2.64 ± 0.14 µM	–	0.62 ± 0.03 µM	–
O=C(NO)c1ccc(CNc2ccnc3ccccc23)cc1 [Compound 44, N-hydroxy-4-((quinolin-4-ylamino)methyl)benzamide]	–	–	3.28 ± 0.48 µM	–
O=C(NO)c1ccc(C(=O)NCc2cccc3cccnc23)cc1 [Compound 47, N^1-hydroxy-N^4-(quinolin-8-ylmethyl)terephthalamide]	2.08 ± 0.1 µM	7.77 ± 0.03 µM	–	–
O=C(Cc1ccc(C(=O)Nc2cccc3cccnc23)cc1)NO [Compound 50, 4-(2-(hydroxyamino)-2-oxoethyl)-N-(quinolin-8-yl)benzamide]	> 10 µM	> 10 µM	–	–
O=C(NO)c1ccc(CCc2cccc3cccnc23)cc1 [Compound 52, N-hydroxy-4-(2-(quinolin-8-yl)ethyl)benzamide]	9.66 ± 0.07 µM	–	3.05 ± 0.09 µM	–
O=C(NO)c1ccc(CNc2cccc3cnccc23)cc1 [Compound 54, N-hydroxy-4-((isoquinolin-5-ylamino)methyl)benzamide]	6.06 ± 0.4 µM	4.64 ± 0.25 µM	–	–
O=C(NO)c1ccc(CNc2cccc3ccncc23)cc1 [Compound 56, N-hydroxy-4-((isoquinolin-8-ylamino)methyl)benzamide]	4.91 ± 0.24 µM	1.76 ± 0.21 µM	–	–
O=C(NO)c1ccc(Nc2cccc3cccnc23)cc1 [Compound 59, N-hydroxy-4-(quinolin-8-ylamino)benzamide]	–	–	3.32 ± 0.21 µM	GI50 (HL60 leukemia cell line): 6.64 ± 0.69 µM
O=C(NO)c1ccc(CNc2nccc3ccccc23)cc1 [Compound 61, N-hydroxy-4-((isoquinolin-1-ylamino)methyl)benzamide]	–	–	0.66 ± 0.1 µM	GI50 (HL60 leukemia cell line): 1.17 ± 0.23 µM
O=C(NO)c1ccc(CNc2cncc3ccccc23)cc1 [Compound 63, N-hydroxy-4-((isoquinolin-4-ylamino)methyl)benzamide]	–	–	1.2 ± 0.14 µM	GI50 (HL60 leukemia cell line): 1.96 ± 0.16 µM
O=C(NO)c1ccc(CNc2cccc3nccnc23)cc1 [Compound 66, N-hydroxy-4-((quinoxalin-5-ylamino)methyl)benzamide]	–	–	1.95 ± 0.21 µM	GI50 (HL60 leukemia cell line): 5.58 ± 0.15 µM
Cc1ccc2cccc(NCc3ccc(C(=O)NO)cc3)c2n1 [Compound 68, N-hydroxy-4-(((2-methylquinolin-8-yl)amino)methyl)benzamide]	4.45 ± 0.92 µM	5.89 ± 0.42 µM	–	IC50 (HDAC1): 1.69 µM; IC50 (HDAC6): 0.0121 µM
O=C(NO)c1ccc(COc2cccc3cccnc23)cc1 [Compound 71, N-hydroxy-4-((quinolin-8-yloxy)methyl)benzamide]	6.23 ± 0.32 µM	7.81 ± 1.17 µM	–	IC50 (HDAC6): 0.011 µM
O=C(NO)c1ccc(CSc2cccc3cccnc23)cc1 [Compound 73, N-hydroxy-4-((quinolin-8-ylthio)methyl)benzamide]	4.29 ± 0.7 µM	6.11 ± 0.69 µM	–	IC50 (HDAC1): 2.2 µM; IC50 (HDAC6): 0.0234 µM
O=C(NO)c1ccc(NCc2cccc3cccnc23)cc1 [Compound 75, N-hydroxy-4-(quinolin-8-ylmethylamino)benzamide]	> 10 µM	6.32 ± 0.92 µM	–	IC50 (HDAC1): 2.04 µM; IC50 (HDAC6): 0.011 µM
CN1CCc2c(c3ccccc3n2Cc2ccc(C(=O)NO)cc2)C1 [Tubastatin A, reference compound]	–	–	–	GI50 [1]: 48.19 ± 0.43 µM; GI50 [2]: 52.2 ± 1.28 µM
